Data as given in ChEMBL document CHEMBL5523670, “Structure activity relationship and target prediction for ABX464 analogues in Caenorhabditis elegans” (Bioorg Med Chem, 2024).

Columns and labels:
[1] = tested on: Caenorhabditis elegans; test: Anthelmintic activity against Caenorhabditis elegans N2 Bristol assessed as reduction in motility of young adults measured for 40 hrs; format: functional, organism-based; settings: for IC50: Caenorhabditis elegans, N2 Bristol, 40 h
[2] = tested on: Caenorhabditis elegans; test: Anthelmintic activity against Caenorhabditis elegans N2 Bristol assessed as maximum inhibition of motility measured for 40 hrs; format: functional
[3] = Cytotoxicity against human HepG2 cells measured for 48 hrs by crystal violet staining based analysis; format: toxicity, cell-based
[4] = Mitotoxicity against human HepG2 cells assessed as reduction in cell viability measured for 48 hrs by crystal violet staining based analysis; format: toxicity

Compound | IC50 [1] [µM] | other results
Clc1ccccc1Nc1ccc2cccc(Cl)c2n1 | > 40 | –
N#Cc1ccccc1Nc1ccc2cccc(Cl)c2n1 | > 40 | –
FC(F)(F)Oc1ccc(Nc2cc(Cl)c3ccccc3n2)cc1 | 11 | –
Fc1cccc2ccc(Nc3ccc(OC(F)(F)F)cc3)nc12 | 18 | Imax [2]: 69%
FC(F)(F)Oc1ccc(Nc2nc3ccccc3cc2Cl)cc1 | > 40 | –
FC(F)(F)c1ccccc1Nc1ccc2cccc(Cl)c2n1 | > 40 | –
Clc1cccc2ccc(Nc3ccccc3)nc12 | 11 | Imax ([1]; time 40 hrs): 52%
Cc1cccc2ccc(Nc3ccc(OC(F)(F)F)cc3)nc12 | > 40 | –
FC(F)(F)Oc1ccc(Nc2ccc3cccc(Cl)c3n2)cc1Cl | > 40 | –
Clc1cccc2ccc(Nc3ccc(-c4ccccc4)cc3)nc12 | > 40 | –
Fc1cccc(Nc2ccc3cccc(Cl)c3n2)c1 | 29 | –
COc1cccc2ccc(Nc3ccc(OC(F)(F)F)cc3)nc12 | > 40 | –
Cc1cccc(Nc2ccc3cccc(Cl)c3n2)c1 | 22 | –
FC(F)(F)c1ccc(Nc2ccc3cccc(Cl)c3n2)cc1 | – | CC50 at 48 h [3]: ≥ 40 µM; CC50 at 48 h [4]: ≥ 40 µM
FC(F)(F)Oc1ccc(Nc2ccc3cc(Cl)ccc3n2)cc1 | > 40 | –
Cc1ccc(Nc2ccc3cccc(Cl)c3n2)cc1 | 28 | Imax [2]: 59%
FC(F)(F)c1ccc(Nc2ccc3cccc(Cl)c3n2)nc1 | > 40 | –
FC(F)(F)Oc1ccc(Nc2ccc3ccccc3n2)cc1 | > 40 | –
FC(F)(F)Oc1cccc(Nc2ccc3cccc(Cl)c3n2)c1 | > 40 | –
CN(c1ccc(OC(F)(F)F)cc1)c1ccc2cccc(Cl)c2n1 | 78 | Imax [2]: 81%; CC50 at 48 h [3]: ≥ 40 µM; CC50 at 48 h [4]: ≥ 40 µM
FC(F)(F)Oc1ccc(Oc2ccc3cccc(Cl)c3n2)cc1 | > 40 | –
FC(F)(F)Oc1ccc(Nc2ccc3c(Cl)cccc3n2)cc1 | 7.1 | CC50 at 48 h [3]: ≥ 40 µM; CC50 at 48 h [4]: ≥ 40 µM
Fc1ccc(Nc2ccc3cccc(Cl)c3n2)cc1 | 16 | Imax [2]: 57%
FC(F)(F)c1ccc(Nc2ccc3cccc(Cl)c3n2)cn1 | > 40 | –

Compound | IC50 [1] [µM] | other results
FC(F)(F)Oc1ccc(Nc2ccc3cccc(-c4ccccc4)c3n2)cc1 | > 40 | –
N#Cc1cccc(Nc2ccc3cccc(Cl)c3n2)c1 | > 40 | –
Clc1ccc(Nc2ccc3cccc(Cl)c3n2)cc1Cl | 6.9 | Imax [2]: 100%; CC50 at 48 h [3]: ≥ 40 µM; CC50 at 48 h [4]: ≥ 40 µM
FC(F)(F)c1cc(Nc2ccc3cccc(Cl)c3n2)ccc1Cl | 7 | Imax [2]: 82%
COc1cccc(Nc2ccc3cccc(Cl)c3n2)c1 | 21 | –
FC(F)(F)c1ccc(Nc2ccc3cccc(Cl)c3n2)cc1C(F)(F)F | > 40 | –
N#Cc1cccc2ccc(Nc3ccc(OC(F)(F)F)cc3)nc12 | > 40 | –
Clc1cccc2ccc(Nc3ccccc3-c3ccccc3)nc12 | > 40 | –
Clc1cccc2ccc(Nc3cccc(-c4ccccc4)c3)nc12 | > 40 | –
Clc1cccc(Nc2ccc3cccc(Cl)c3n2)c1 | 11 | CC50 at 48 h [3]: ≥ 40 µM; CC50 at 48 h [4]: ≥ 40 µM
FC(F)(F)Oc1ccc(Nc2ccccn2)cc1 | > 40 | –
Oc1ccc(Nc2ccc3cccc(Cl)c3n2)cc1 | > 40 | –
FC(F)(F)Oc1ccc(Nc2ccc3cccc(Br)c3n2)cc1 | 5.9 | Imax [2]: 67%
Clc1ccc(Nc2ccc3cccc(Cl)c3n2)cc1 | 14 | Imax [2]: 58%
N#Cc1ccc(Nc2ccc3cccc(Cl)c3n2)cc1 | > 40 | –
COc1ccc(Nc2ccc3cccc(Cl)c3n2)cc1 | > 40 | –
Fc1ccccc1Nc1ccc2cccc(Cl)c2n1 | > 40 | –
FC(F)(F)c1cccc(Nc2ccc3cccc(Cl)c3n2)c1 | 3.2 | Imax [2]: 55%
COc1ccccc1Nc1ccc2cccc(Cl)c2n1 | > 40 | –
FC(F)(F)Oc1ccccc1Nc1ccc2cccc(Cl)c2n1 | > 40 | –
C[C@](C#N)(COc1cc(C#N)ccc1C(F)(F)F)NC(=O)c1ccc(SC(F)(F)F)cc1 [MONEPANTEL] | 0.03 | –
CO/N=C1\C[C@]2(C[C@@H]3C[C@@H](C/C=C(\C)C[C@@H](C)/C=C/C=C4\CO[C@@H]5[C@H](O)C(C)=C[C@@H](C(=O)O3)[C@]45O)O2)O[C@H](/C(C)=C/C(C)C)[C@H]1C [MOXIDECTIN] | 0.1 | –
FC(F)(F)Oc1ccc(Nc2ccc3cccc(Cl)c3n2)cc1 [OBEFAZIMOD] | 7.2 | Imax [2]: 94%
